In brackets after ≈: the same amount, converted by molar mass.

For orientation: solubility means the concentration that dissolves in the medium under given conditions. Low values mean a poorly soluble substance, high ones a readily soluble substance.

Take `CCCCOCCOCCOCCCC`: the solubility (20 °C) was found to be 13700 µM (≈ 3000 µg/mL).
`CCc1ccc(C)cc1` gave a solubility (25 °C) of 790 µM (≈ 94.9 µg/mL).
For `Clc1ccc(-c2c(Cl)cccc2Cl)cc1`, where the note is “25 °C”, the solubility is 0.617 µM (≈ 0.159 µg/mL).
Still for that read-out and setting: in the case of `CCCCCCCOC(=O)c1ccc(N)cc1` it was 25.1 µM (≈ 5.91 µg/mL).
On the same count and under the same terms, with `CCCC[N+](=O)[O-]` the figure was 44600 µM (≈ 4600 µg/mL); with `CCCOC(N)=O`, 741000 µM (≈ 76400 µg/mL).
With `Clc1ccccc1-c1c(Cl)cccc1Cl`, the solubility (25 °C) was determined as 1.26 µM (≈ 0.324 µg/mL).
The same measure, in the same setting: in the case of `CCCCCCCCOC(=O)c1ccc(N)cc1` it was 3.98 µM (≈ 0.993 µg/mL); in that of `Fc1cccc(F)c1`, 9990 µM (≈ 1140 µg/mL).
The compound `Cc1ccco1` showed a solubility (20 °C) of 36500 µM (≈ 3000 µg/mL).
`Clc1ccc(-c2ccc(Cl)c(Cl)c2Cl)c(Cl)c1` registered a solubility (25 °C) of 0.024 µM (≈ 0.00783 µg/mL).
For the setting “20 °C”, `CCCCOCCOCCCC` registered a solubility of 11500 µM (≈ 2000 µg/mL).
With `Clc1ccc(-c2c(Cl)ccc(Cl)c2Cl)cc1Cl`, the solubility (25 °C) came to 0.0224 µM (≈ 0.00731 µg/mL).
Same read-out and setting: in the case of `CC(=O)Nc1ccccc1[N+](=O)[O-]` it was 12300 µM (≈ 2220 µg/mL).
The same measure, in the same setting: in the case of `CCCCCCN` it was 119000 µM (≈ 12000 µg/mL); in that of `Clc1cccc(-c2ccccc2)c1Cl`, 4.47 µM (≈ 0.997 µg/mL).
For the setting “25 °C”, `Clc1ccc(Cl)c(-c2ccccc2)c1Cl` came in with a solubility of 0.323 µM (≈ 0.0833 µg/mL).
The same measure, in the same setting: in the case of `CCCCCC(C)O` (stereo not given) it was 28100 µM (≈ 3270 µg/mL).
The same measure, in the same setting: with `O=Cc1ccc([N+](=O)[O-])cc1` the figure was 15500 µM (≈ 2340 µg/mL).
In the case of `Clc1cc(Cl)c(-c2c(Cl)ccc(Cl)c2Cl)cc1Cl`, the solubility (25 °C) is 0.0117 µM (≈ 0.00424 µg/mL).
Take `CCCCCCOCCO`: the solubility (20 °C) stood at 67700 µM (≈ 9900 µg/mL).
For the compound `Clc1cccc(-c2c(Cl)ccc(Cl)c2Cl)c1Cl`, the solubility (25 °C) was 0.166 µM (≈ 0.0542 µg/mL).
Regarding `Clc1ccccc1-c1ccc(Cl)c(Cl)c1Cl`, the solubility (25 °C) was determined as 0.148 µM (≈ 0.0432 µg/mL). This solubility and that of the compound before are within 1.5-fold of each other.
As for `CCOCCOCC`, the solubility (25 °C) worked out at 708000 µM (≈ 83700 µg/mL).
On the same count and under the same terms, in the case of `Clc1cc(Cl)c(Cl)c(-c2c(Cl)ccc(Cl)c2Cl)c1` it was 0.0151 µM (≈ 0.00544 µg/mL).

Source of the values: the OPERA property sets (Mansouri et al. 2018).
